Data on 4 compounds can be found in ChEMBL document CHEMBL1129862, “2,3-Substituted 2-azanorbornanes as polar -turn mimetics” (Bioorg Med Chem Lett, 1997).

Where a SMILES comes first, the peptide text is derived from it. Bridges are numbered along the chain shown (N, C = ends). [ ]: non-standard residue; d: D form. Dap = NC[C@H](N)C(=O)O

Assay [1] deals with T1, Substance-K receptor (Mesocricetus auratus) (UniProt P51144).
T1 sequence (whole entry): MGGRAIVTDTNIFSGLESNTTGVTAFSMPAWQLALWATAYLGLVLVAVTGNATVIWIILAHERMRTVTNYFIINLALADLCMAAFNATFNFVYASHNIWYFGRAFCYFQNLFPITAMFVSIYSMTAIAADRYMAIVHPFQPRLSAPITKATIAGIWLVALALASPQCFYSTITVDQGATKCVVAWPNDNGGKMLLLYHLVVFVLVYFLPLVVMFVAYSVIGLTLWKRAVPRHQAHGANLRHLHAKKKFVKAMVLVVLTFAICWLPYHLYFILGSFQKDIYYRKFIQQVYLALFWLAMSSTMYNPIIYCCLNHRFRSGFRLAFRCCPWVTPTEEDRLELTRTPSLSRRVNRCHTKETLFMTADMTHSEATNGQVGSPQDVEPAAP
The experiment in a line: Inhibition by the compound against [125I]NKA binding to neurokinin-2 (NK-2) receptor in hamster urinary bladder at 10 uM concentration.

The target in assay [2] is T2, Substance-P receptor (Homo sapiens, UniProt P25103). The assay can be described thus: Tested for binding affinity against [125I]BH-SP binding to neurokinin-1 (NK-1) receptor in human IM-9 cells. The assay is classed as cell-based.
T2 sequence (P25103 whole entry): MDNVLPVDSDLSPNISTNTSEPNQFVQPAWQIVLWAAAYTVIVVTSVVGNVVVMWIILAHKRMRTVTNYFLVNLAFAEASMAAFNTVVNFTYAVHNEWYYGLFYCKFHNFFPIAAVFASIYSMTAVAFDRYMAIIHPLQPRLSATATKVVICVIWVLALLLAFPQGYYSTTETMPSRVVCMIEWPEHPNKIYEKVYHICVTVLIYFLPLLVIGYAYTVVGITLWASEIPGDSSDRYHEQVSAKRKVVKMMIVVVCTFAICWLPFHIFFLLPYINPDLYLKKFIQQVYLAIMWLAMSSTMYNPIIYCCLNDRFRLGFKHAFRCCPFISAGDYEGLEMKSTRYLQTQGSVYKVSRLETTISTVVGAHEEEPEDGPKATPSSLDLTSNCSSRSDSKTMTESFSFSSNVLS
Another assay has as its target T3, Substance-K receptor (Mesocricetus auratus, UniProt P51144).
T3 sequence (P51144 whole entry): T1 sequence (whole entry)
The assay can be described thus: Tested for binding affinity of compound against [125I]NKA binding to neurokinin-2 (NK-2) receptor in hamster urinary bladder.

In assay [3] the target is T4, Neuromedin-K receptor (Homo sapiens, UniProt P29371).
T4 sequence (P29371 whole entry): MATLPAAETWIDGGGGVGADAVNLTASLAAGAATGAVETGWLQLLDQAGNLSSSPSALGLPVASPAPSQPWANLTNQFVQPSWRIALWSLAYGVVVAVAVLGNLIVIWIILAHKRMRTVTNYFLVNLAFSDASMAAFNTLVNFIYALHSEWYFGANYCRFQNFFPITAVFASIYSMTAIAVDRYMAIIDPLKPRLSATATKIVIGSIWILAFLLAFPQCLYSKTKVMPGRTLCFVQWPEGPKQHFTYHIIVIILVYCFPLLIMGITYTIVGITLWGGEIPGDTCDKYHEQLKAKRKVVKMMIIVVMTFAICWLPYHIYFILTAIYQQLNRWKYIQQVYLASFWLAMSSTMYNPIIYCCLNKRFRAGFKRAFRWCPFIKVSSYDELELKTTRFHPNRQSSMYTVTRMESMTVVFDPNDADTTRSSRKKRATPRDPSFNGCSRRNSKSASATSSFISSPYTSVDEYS
The assay can be described thus: Tested for binding affinity of compound against [125I][MePhe]-NKB binding to human Tachykinin receptor 3 in stably expressed CHO cells; Inactive. Format: cell-based.

For assay [4], the target named is T4, Neuromedin-K receptor. The assay can be described thus: Tested for binding affinity of compound against [125I][MePhe]-NKB binding to Tachykinin receptor 3 in stably expressed CHO cells. Format: cell-based.
In assay [5] the target is T2, Substance-P receptor. The experiment in a line: Inhibition by the compound against [125I]BH-SP radioligand binding to neurokinin-1 (NK-1) receptor in human IM-9 cells at 10 uM concentration. Format: cell-based.
Assay [6] concerns the target T5, Neuromedin-K receptor (Homo sapiens) (UniProt P29371).
T5 sequence (whole entry): T4 sequence (P29371 whole entry)
The experiment in a line: Inhibition by the compound against [125I]-[MePhe]-NKB binding to human Tachykinin receptor 3 in stably expressed CHO cells at 10 uM concentration. The assay is classed as cell-based.

By inhibition is commonly meant the share of the control response that was lost under treatment. Low readings indicate little suppression, high ones strong suppression. As usually defined, the IC50 is the midpoint of a concentration-inhibition curve. A higher IC50 goes with weaker potency. Regarding `O=C(Cc1c[nH]c2ccccc12)N1CCC(Cc2ccccc2)C1` (stereo unspecified), the inhibition in assay [1] worked out at 14%. Also, on Substance-P receptor [2], the half-maximal inhibitory concentration (IC50) came to 3.7 µM.

As for `CSCC[C@@H]1NC(=O)[C@H](CC(C)C)NC(=O)[C@@H]2CNC(=O)C[C@H](NC1=O)C(=O)N[C@@H](Cc1c[nH]c3ccccc13)C(=O)N[C@@H](Cc1ccccc1)C(=O)N2` (cyclo(DWF[Dap]LM); lactam 1-4), the results for the IC50 at Substance-P receptor [2], at Substance-K receptor and on Neuromedin-K receptor [3] were 0.8 µM, 0.079 nM and “Not Active”, respectively.

For `O=C(NCc1cn(C(=O)OCc2ccccc2)c2ccccc12)N1C2CCC(C2)C1Cc1ccccc1` (stereo unspecified), the inhibition in assay [1] worked out at 18%; on Substance-P receptor [5], 55%. In addition, the half-inhibitory concentration (IC50) on Neuromedin-K receptor [4] turned out to be 10 µM.

As to `O=C(NCc1c[nH]c2ccccc12)N1C2CCC(C2)C1Cc1ccccc1` (stereo unspecified), the results for the inhibition in assay [1] and in assay [6] were 31% and 35%, respectively. The IC50 at Substance-P receptor [2] worked out at 6.7 µM.
